Test [1] deals with scopolamine treated mice. The test can be described thus: step through passive avoidance (STPA) in scopolamine treated mice. It is filed as in vivo, Male C57BL/6 mice. From the text:
Male C57BL/6 mice weighing 20-25 g (6-8 weeks of age) were maintained in a controlled environment (housed at 5 per cage; at 22-25 C.°; 12/12 light/dark cycle) and allowed to acclimate 2 weeks before initiation of the STPA task. The STPA apparatus consists of a box with two compartments light and dark; each of 20×9.5×16.5 cm^3 (Ugo Basile Rat Passive Avoidance Apparatus, customized for mice with chamber inserts). Mice were transported to the testing facility in covered cages and whilst in training or testing phases were housed at 1 or 2 per cage.
STPA Habituation phase: Mice are placed in the light compartment and latency to enter the dark compartment is recorded. The criteria of success is entrance to the dark compartment within 30 sec twice in three trails or three times in five trials; showing the normal aversion of mice to a highly lit space.
STPA Training phase: In acute drug testing, 2 hrs after habituation is complete; 30 min (t=−30) and 20 min (t=−20) prior to training, scopolamine (or saline) and test drug (or vehicle), respectively, are administered. In the drinking water protocol, at t=−30 prior to training, scopolamine (or saline) is administered. Mice are placed into the light compartment at time zero. Upon entry into the dark compartment, an automatic door closes and 2.0 sec shock (0.5 mA) is delivered through the floor grating. […] The number of trials to reach criterion is recorded for assessment of secondary biomarkers, such as analgesia.
STPA Testing phase: At 24 h and 48 h post training, animals are tested for memory retention without any drug administration. The animals are again placed in the light compartment. Latency to enter the dark side is recorded as a measure of memory consolidation, retention and retrieval.
Scopolamine (1 mg/kg; 1 mg/4 ml) is administered ip. Test compound (1 mg/kg, 1 mg/Kg) administered ip.
Dosing—Behavioral Studies: Drugs and vehicle were administered either i.p. for acute studies (1 mg/kg, or as indicated in the figures, in saline), otherwise in drinking water (20 mg/kg/day).
Drinking water dosing: Rodents drink continuously during the active dark cycle and intermittently during the resting light cycle.

For test [2], the system named is animal models of chronic learning and cognition impairment. The test can be described thus: animal models of chronic learning and cognition impairment. It is filed as in vivo. Conditions: chronic use.

Turning to `Cc1ncsc1CCO[N+](=O)[O-].Cl` [GT-1061, 4-methyl-5-(2-nitroxyethyl)thiazole HCl], the “reversal of cognition deficits, comparison (FIG. 4)” value (shortened to “reversal … (FIG. 4)”) in test [1] (STPA, scopolamine treated mice) is “reversal of cognition deficits”. Besides, in test [1] (in drinking water (20 mg/kg/day), STPA, scopolamine 1 mg/kg ip), the “cognition deficit reversal (FIG. 1, FIG. 2 and FIG. 3)” value is listed as “cognition deficit reversal”. `O=[N+]([O-])O[C@H]1CO[C@H]2[C@@H]1OC[C@H]2O[N+](=O)[O-]` [ISDN, isosorbide dinitrate]: the “reversal … (FIG. 4)” value in test [1] (STPA, scopolamine treated mice) was “reversal of cognition deficits”. The “effect on learning and cognition” value in test [2] is “enhance learning and cognition”. On to `Cc1ncsc1CCCl` [clomethiazole], for which the “reversal … (FIG. 4)” value in test [1] (mouse, in vivo) is reported as “reversal of cognition deficits”.

Values taken from patent US20090252704A1, “THERAPIES FOR COGNITION AND LEARNING ENHANCEMENT” (priority 2008, published 2009).
